From patent US12590063B2, “Phenol derivative” (Sumitomo Pharma Co., Ltd., priority 2020, dated 2026)
Structures can show the parent of a compound that is named as a salt.

Key:
[1] = Evaluation test for metabolic stability to S9; format: in vitro ADME; settings: liver S9 fraction, 37° C., 15 minutes, final compound concentration 10 nM
Description: Test Example 4: Evaluation Test for Metabolic Stability to S9
The compounds were added to a reaction solution in which the liver S9 fraction was diluted with phosphate buffer, and incubation was initiated at 37° C. (final compound concentration 10 nM, final volume 300 μL). After incubation for 15 minutes, the reaction was stopped by adding the reaction solution to acetonitrile, and centrifugation was carried out. After filtering the supernatant through a filter, the amount of compounds was determined using LC/MS/MS. From the amount of compounds obtained, the residual rate 15 minutes after the initiation of the reaction was calculated relative to the amount of compounds before the initiation of the reaction (0 minutes).

Human TRPV1 = biological target: T1, Human TRPV1 (Homo sapiens, UniProt Q8NER1); experiment: Evaluation of agonistic properties using human TRPV1 transiently expressing cells; format: cell-based; settings: for EC50: HEK293 cells transiently expressing human TRPV1 and apoaequorin, luminescence signal Rlu (Max-Min), read-out: TRPV1 EC50; for TRPV-1-agonistic activity (in words): evaluation test for TRPV-1-agonistic properties, summary of Tables 3 and 4
T1 construct: the TRPV1 gene (GenBank NP_542435.2) had been inserted; expressed in transfected cells; host or cells: HEK293 cells (cat #CCL-82.2, ATCC), transient transfection with pcDNA3.1
T1 sequence (Q8NER1 whole entry): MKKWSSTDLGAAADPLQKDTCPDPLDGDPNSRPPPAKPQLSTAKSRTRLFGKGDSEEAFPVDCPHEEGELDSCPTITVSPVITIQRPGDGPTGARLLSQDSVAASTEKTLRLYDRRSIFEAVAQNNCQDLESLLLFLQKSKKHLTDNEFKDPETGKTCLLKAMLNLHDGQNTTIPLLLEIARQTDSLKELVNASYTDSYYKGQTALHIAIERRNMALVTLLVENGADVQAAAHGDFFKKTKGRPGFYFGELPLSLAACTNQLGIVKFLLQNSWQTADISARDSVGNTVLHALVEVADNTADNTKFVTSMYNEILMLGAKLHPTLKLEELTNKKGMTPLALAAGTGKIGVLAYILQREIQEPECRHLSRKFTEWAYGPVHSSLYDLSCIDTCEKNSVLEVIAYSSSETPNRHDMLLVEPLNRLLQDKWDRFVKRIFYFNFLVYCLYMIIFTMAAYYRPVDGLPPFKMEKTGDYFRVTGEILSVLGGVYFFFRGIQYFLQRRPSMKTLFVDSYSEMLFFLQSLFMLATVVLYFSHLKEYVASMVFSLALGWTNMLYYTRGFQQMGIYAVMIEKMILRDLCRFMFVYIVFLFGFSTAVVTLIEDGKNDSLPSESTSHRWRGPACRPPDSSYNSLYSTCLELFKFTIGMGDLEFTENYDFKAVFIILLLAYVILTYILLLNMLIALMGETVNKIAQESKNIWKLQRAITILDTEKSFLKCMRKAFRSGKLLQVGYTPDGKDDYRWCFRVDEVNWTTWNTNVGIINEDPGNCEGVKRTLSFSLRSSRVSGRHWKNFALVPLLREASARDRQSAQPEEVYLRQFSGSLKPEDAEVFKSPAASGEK
Text: Test Example 1: Evaluation of Agonistic Properties Using Human TRPV1 Transiently Expressing Cells
(1) Generation of Human TRPV1 Transiently Expressing Cells
Human TRPV1 transiently expressing cells were generated and subjected to culture. Specifically, HEK293 cells (cat #CCL-82.2, ATCC) were used as host cells. Human TRPV1 and apoaequorin were transiently expressed by introducing the mammalian cell expression pcDNA3.1 vector (cat #v790-20, Invitrogen) into which the TRPV1 gene (GenBank NP_542435.2) had been inserted.
The Dulbecco's Modified Eagle's Medium (DMEM) medium (cat #11550-043, Thermo Fisher Scientific) containing 10% inactivated fetal bovine serum (cat #10270-106, Thermo Fisher Scientific) was used as the medium, and the culture was carried out in tissue culture dishes (cat #3020-100, Iwaki). During the culture, cells were collected every 2 to 3 days by treating with PBS containing 10% 2.5 g/1-trypsin/[…] solution, phenol red (cat #32777-44, Nacalai Tesque), and passage culture was carried out.
Three days after the passage, cells were collected with 10% trypsin-PBS treatment at a state of about 80% confluency, suspended in a DMEM medium containing 10% fetal bovine serum to 4000 cells/35 μl/well, and seeded into 384-well plates (cat #353962, FALCON).
The day after seeding, Viviren (cat #E6492, Promega) was added (15 μl/well) to a final concentration of 4.5 μM/HBSS (cat #14065-056, Thermo Fisher Scientific)/90 mM HEPES (cat #17514-15, Nacalai Tesque)/0.1% BSA (cat #01281-84, Nacalai Tesque), and after centrifugation, the samples were allowed to stand at room temperature for 2 hours under light-shielded conditions.
(2) Preparation of Test Compounds
For the test compounds, dimethyl sulfoxide solutions were produced at a concentration 1000 times the final concentration, and from these solutions, solutions at concentration 10 times the final concentration were prepared with Hanks/20 mmol/L HEPES/0.10% BSA (cat #01281-84, Nacalai Tesque).
(3) Evaluation of TRPV1-Agonistic Properties
FDSS7000 (Hamamatsu Photonics K.K.) was used for detection of TRPV1 agonist-stimulated luminescence signals. The test compounds were added to plates to which the cells and luminescent substrates had been added. The luminescence signals (center wavelength: 465 nm) after addition of the test compounds were measured, and the Rlu (Max−Min) was calculated.

| Residual rate (%) [1] | EC50 (Human TRPV1) | TRPV-1-agonistic activity (in words) (Human TRPV1) | SMILES |
| --- | --- | --- | --- |
| 89% | 6.1 nM |  | COc1cc(CC(=O)Nc2cccc([C@H]3CC[C@@H](OC(=O)Cc4ccc(F)cc4)CC3)c2)ccc1O [Example 8, cis-4-{3-[2-(4-hydroxy-3-methoxyphenyl)acetamido]phenyl}cyclohexyl (4-fluorophenyl)acetate] |
| <1% | 12.5 nM |  | COc1cc(CC(=O)Nc2ccnc(-c3cccc(OC(=O)C4CCCCC4)c3)c2)ccc1O [Example 33, 3-{4-[2-(4-hydroxy-3-methoxyphenyl)acetamido]pyridin-2-yl}phenyl cyclohexanecarboxylate hydrochloride] |
| <1% | 2.7 nM | stronger TRPV-1-agonistic activity | COc1cc(CC(=O)Nc2ccc(F)c(-c3cccc(OC(=O)C(C)C)c3)c2)ccc1O [Example 19, 2′-fluoro-5′-[2-(4-hydroxy-3-methoxyphenyl)acetamido][1,1′-biphenyl]-3-yl 2-methylpropanoate] |
| <1% | 148 nM |  | COc1cc(CNC(=O)c2cccc(-c3cccc(OC(=O)C(C)C)c3)n2)ccc1O [Example 47, 3-(6-{[(4-hydroxy-3-methoxyphenyl)methyl]carbamoyl}pyridin-2-yl)phenyl 2-methylpropanoate] |
| <1% | 15.2 nM |  | COc1cc(CC(=O)Nc2cccc(-c3cccc(OC(=O)C(C)C)c3)c2F)ccc1O [Example 23, 2′-fluoro-3′-[2-(4-hydroxy-3-methoxyphenyl)acetamido][1,1′-biphenyl]-3-yl 2-methylpropanoate] |
| <1% | 4.3 nM | stronger TRPV-1-agonistic activity | COc1cc(CNC(=O)c2ccnc(-c3cccc(OC(=O)C(C)C)c3)c2)ccc1O [Example 46, 3-(4-{[(4-hydroxy-3-methoxyphenyl)methyl]carbamoyl}pyridin-2-yl)phenyl 2-methylpropanoate] |
| <1% | 14.9 nM |  | COc1cc(CC(=O)Nc2ccnc(-c3cccc(OC(=O)CC4CCCCC4)c3)c2)ccc1O [Example 31, 3-{4-[2-(4-hydroxy-3-methoxyphenyl)acetamido]pyridin-2-yl}phenyl cyclohexylacetate] |
| <1% | 13.2 nM |  | COc1cc(CC(=O)Nc2cccc(-c3cccc(OC(=O)CC4CCOCC4)c3)c2)ccc1O [Example 29, 3′-[2-(4-hydroxy-3-methoxyphenyl)acetamido][1,1′-biphenyl]-3-yl (oxa-4-yl)acetate] |
| <1% | 3.9 nM | stronger TRPV-1-agonistic activity | COc1cc(CC(=O)Nc2cccc(-c3cccc(OC(=O)C(C)C)c3)c2)ccc1O [Example 24, 3′-[2-(4-hydroxy-3-methoxyphenyl)acetamido][1,1′-biphenyl]-3-yl 2-methylpropanoate] |
| 100% | 5.6 nM |  | COc1cc(CC(=O)Nc2cccc([C@H]3CC[C@@H](OC(=O)Cc4cc(F)cc(F)c4)CC3)c2)ccc1O [Example 7, cis-4-{3-[2-(4-hydroxy-3-methoxyphenyl)acetamido]phenyl}cyclohexyl (3,5-difluorophenyl)acetate] |
| 1% | 5.3 nM |  | COc1cc(CC(=O)Nc2cccc([C@H]3CC[C@@H](OC(=O)COc4ccccc4)CC3)c2)ccc1O [Example 6, cis-4-{3-[2-(4-hydroxy-3-methoxyphenyl)acetamido]phenyl}cyclohexyl phenoxyacetate] |
| <1% | 31.3 nM |  | COc1cc(CNC(=O)c2cccc(-c3cccc(OC(=O)CC4CCCCC4)c3)c2)ccc1O [Example 45, 3′-{[(4-hydroxy-3-methoxyphenyl)methyl]carbamoyl}[1,1′-biphenyl]-3-yl cyclohexylacetate] |
| 11% | 6.3 nM |  | COc1cc(CC(=O)Nc2cccc([C@H]3CC[C@@H](OC(=O)Cc4ccc(Cl)cc4)CC3)c2)ccc1O [Example 14, cis-4-{3-[2-(4-hydroxy-3-methoxyphenyl)acetamido]phenyl}cyclohexyl (4-chlorophenyl)acetate] |
| <1% | 10.2 nM |  | COc1cc(CNC(=O)c2cccc(-c3cccc(OC(=O)C(C)C)c3)c2)ccc1O [Example 44, 3′-1{[(4-hydroxy-3-methoxyphenyl)methyl]carbamoyl}[1,1′-biphenyl]-3-yl 2-methylpropanoate] |
| 67% | 4.8 nM |  | COc1cc(CC(=O)Nc2cccc([C@H]3CC[C@@H](OC(=O)Cc4ccccc4Cl)CC3)c2)ccc1O [Example 10, cis-4-{3-[2-(4-hydroxy-3-methoxyphenyl)acetamido]phenyl}cyclohexyl (2-chlorophenyl)acetate] |
| <1% | 6750 nM |  | COc1cc(CC(=O)Nc2cccc(-c3cccc(OC(=O)C(C)C)c3)c2OC)ccc1O [Example 21, 3′-[2-(4-hydroxy-3-methoxyphenyl)acetamido]-2′-methoxy[1,1′-biphenyl]-3-yl 2-methylpropanoate] |
| <1% | 6.8 nM |  | COc1cc(CC(=O)Nc2cc(-c3cccc(OC(=O)C(C)C)c3)ccc2F)ccc1O [Example 22, 4′-fluoro-3′-[2-(4-hydroxy-3-methoxyphenyl)acetamido][1,1′-biphenyl]-3-yl 2-methylpropanoate] |
| <1% | 35.1 nM |  | COc1cc(CC(=O)Nc2cc(-c3cccc(OC(=O)C(C)C)c3)ccc2OC)ccc1O [Example 20, 3′-[2-(4-hydroxy-3-methoxyphenyl)acetamido]-4′-methoxy[1,1′-biphenyl]-3-yl 2-methylpropanoate] |
| 2% | 11.6 nM |  | COc1cc(CC(=O)Nc2cccc(-c3cccc(OC(=O)CC4CCCCC4)c3)n2)ccc1O [Example 32, 3-{6-[2-(4-hydroxy-3-methoxyphenyl)acetamido]pyridin-2-yl}phenyl cyclohexylacetate] |
| 90% | 61.2 nM |  | COc1cc(CC(=O)Nc2cccc([C@H]3CC[C@@H](OC(=O)CC4CCCCC4)CC3)c2)ccc1O [Example 5, cis-4-{3-[2-(4-hydroxy-3-methoxyphenyl)acetamido]phenyl}cyclohexyl cyclohexylacetate] |
| <1% | 6.3 nM |  | CCC(=O)Oc1cccc(-c2cccc(NC(=O)Cc3ccc(O)c(OC)c3)c2)c1 [Example 16, 3′-[2-(4-hydroxy-3-methoxyphenyl)acetamido][1,1′-biphenyl]-3-yl propanoate] |
| 88% | 2 nM |  | COc1cc(CC(=O)Nc2cccc([C@H]3CC[C@@H](OC(=O)Cc4cccc(C)c4)CC3)c2)ccc1O [Example 9, cis-4-{3-[2-(4-hydroxy-3-methoxyphenyl)acetamido]phenyl}cyclohexyl (3-methylphenyl)acetate] |
